Several values for one entry are separate records, joined by “and”; a condition that tells them apart may be missing. Equal entries are not always repeated.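 Results reflect a 48-hour exposure of cells in 96-well plates to compound at five concentrations. GI50 = concentration required for 50% inhibition of growth. TGI denotes the concentration required for complete inhibition of growth.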
How the values were obtained:
Assay in all cases: NCI anticancer screen, dose series, 48 h
M14 melanoma = tested on: M14 melanoma
UACC-257 melanoma = tested on: UACC-257 melanoma
NCI-H522 lung = tested on: NCI-H522 lung
MDA-MB-231 breast = tested on: MDA-MB-231 breast
K-562 leukemia = tested on: K-562 leukemia
PC-3 prostate = tested on: PC-3 prostate
NCI/ADR-RES ovarian = tested on: NCI/ADR-RES ovarian
SN12C renal = tested on: SN12C renal
HS 578T breast = tested on: HS 578T breast
SF-268 CNS = tested on: SF-268 CNS

Structure (SMILES)	TGI (M14 melanoma)	TGI (UACC-257 melanoma)	TGI (NCI-H522 lung)	TGI (MDA-MB-231 breast)	TGI (K-562 leukemia)	TGI (PC-3 prostate)	TGI (NCI/ADR-RES ovarian)	TGI (SN12C renal)	TGI (HS 578T breast)	TGI (SF-268 CNS)	GI50 (M14 melanoma)	GI50 (UACC-257 melanoma)	GI50 (NCI-H522 lung)	GI50 (MDA-MB-231 breast)	GI50 (K-562 leukemia)	GI50 (PC-3 prostate)	GI50 (NCI/ADR-RES ovarian)	GI50 (SN12C renal)	GI50 (HS 578T breast)	GI50 (SF-268 CNS)
CC1=C(\C=C/C(C)=C/C=C/C(C)=C/C=C/C=C(C)\C=C\C=C(C)/C=C/C2=C(C)CCCC2(C)C)C(C)(C)CCC1	> 100 µM	> 100 µM	> 100 µM	> 100 µM	> 100 µM	> 100 µM	> 100 µM	> 100 µM	> 100 µM	> 100 µM	–	–	–	–	–	–	–	–	–	–
COc1cc(/C=N/NC(=O)c2cnn3c2NC(c2ccccc2)C3)ccc1OCc1ccccc1 (centres undefined)	4.45 µM	11 µM	3.9 µM	9.39 µM	15.3 µM	3.23 µM	10.9 µM	11 µM	3.3 µM	16.7 µM	695 nM	1460 nM	391 nM	2170 nM	293 nM	967 nM	1510 nM	2260 nM	908 nM	2.42 µM
CC1=C(C(=S)Nc2ccc(Cl)c(C(=O)OC(C)C)c2)SCCO1	44 µM	47 µM	44.3 µM	33.2 µM	43.6 µM	46.4 µM	43.2 µM	32.9 µM	75.1 µM	60.8 µM	–	–	–	–	–	–	–	–	–	–
O=C(NOCCO)c1ccc2cncn2c1Nc1ccc(I)cc1F	–	0.0127 µM and < 0.0141 µM	> 100 µM	> 100 µM	> 100 µM	> 100 µM	> 100 µM	> 100 µM	> 100 µM	> 100 µM	2.86 nM and < 10 nM	2.34 nM and < 10 nM	> 3690 nM and 16900 nM	34.3 nM and 28.3 nM	359 nM and 219 nM	> 10000 nM and 45400 nM	> 10000 nM and 29400 nM	> 10000 nM and 19800 nM	> 10000 nM and 60600 nM	> 10 µM and 22 µM
COC(=O)c1sc(-n2cnc3cc(OC)c(OC)cc32)cc1OCc1ccccc1C(F)(F)F	> 25 µM	> 25 µM	> 25 µM	> 25 µM	> 25 µM	> 25 µM	> 25 µM	> 25 µM	> 25 µM	> 25 µM	> 25000 nM	> 25000 nM	17700 nM	5790 nM	> 25000 nM	> 25000 nM	> 25000 nM	> 25000 nM	6200 nM	17.1 µM
O=C(Nc1c[nH]c(=O)[nH]c1=O)Oc1ccccc1	> 100 µM	> 100 µM	> 100 µM	> 100 µM	> 100 µM	> 100 µM	> 100 µM	> 100 µM	> 100 µM	> 100 µM	–	–	–	–	–	–	–	–	–	–
COc1ccc2c(Cl)cc(NC(=S)Nc3ccccc3)nc2c1	36.6 µM	> 100 µM	34.8 µM	56.4 µM	60.2 µM	66.4 µM	54.1 µM	> 100 µM	37.3 µM	57.2 µM	–	–	–	–	–	–	–	–	–	–
Cc1cnc(C(=O)Nc2nc3ccc(S(=O)(=O)Nc4ccc(C(C)(C)C)cc4)cc3[nH]2)cn1	4.43 µM	22.7 µM	8.9 µM	10.7 µM	5.71 µM	8.31 µM	3.57 µM	13.3 µM	10.6 µM	13.6 µM	384 nM	2390 nM	356 nM	1410 nM	314 nM	402 nM	370 nM	592 nM	422 nM	0.759 µM
O=C1OC(c2ccccc2)=N/C1=C\c1ccccc1	> 100 µM	59.7 µM and > 100 µM	> 100 µM	> 100 µM	> 100 µM and 46.3 µM	> 100 µM	> 100 µM and 76.9 µM	> 100 µM	> 100 µM	82.5 µM and > 100 µM	–	–	–	–	> 100000 nM and 19800 nM	–	–	–	–	14.5 µM and 34.8 µM
N#Cc1cnn(C(=O)c2nn(-c3ccc(Cl)cc3)cc2O)c1N	8.01 µM	10.6 µM	1.47 µM	19.2 µM	–	7.28 µM	8.78 µM	17.5 µM	3.43 µM	23.8 µM	462 nM	470 nM	173 nM	708 nM	253 nM	322 nM	401 nM	342 nM	192 nM	0.439 µM
COc1ccc2c(c1O)[C@@]13CCCC=C1[C@@H](C2)N(C)CC3	> 100 µM	> 100 µM	76.2 µM	> 100 µM	> 100 µM	> 100 µM	> 100 µM	> 100 µM	> 100 µM	> 100 µM	–	–	–	–	–	–	–	–	–	–
O=C(/C=C/c1ccco1)Nc1ncc(Cc2cc(Cl)ccc2Cl)s1	> 100 µM	> 100 µM	–	> 100 µM	> 100 µM	> 100 µM	0.37 µM	> 100 µM	> 100 µM	> 100 µM	37.3 nM	> 100000 nM	36.4 nM	157 nM	34.4 nM	42.1 nM	32.7 nM	117 nM	42.7 nM	0.102 µM

From PubChem BioAssay (NCI)
